pIC50: −log10 of the molar value.
Key:
[1] = system: Human Umbilical Vein Endothelial Cells (HUVECs); assay: Inhibition against sandwich tube formation by vascular endothelial cells, FGF2-stimulated; format: cell-based; conditions: HUVEC, 20 ng/ml FGF2 and 10 ng/ml EGF, 4th day after addition
Method: Human Umbilical Vein Endothelial Cells (HUVECs) were isolated according to a reported method (Shinseikagaku Jikken Koza [New Biochemistry Experiment Lectures], “Saibo Baiyo Gijutsu” [Cell Culturing Techniques], p. 197-202), • and were cultured in a 5% CO2 incubator (37° C.) using EGM-2 medium (purchased from Clonetics Corp.) until the cells reached confluency.
An ice-cooled mixture of collagen: 5×RPMI 1640: reconstitution buffer (all purchased from Nitta Gelatin, Inc.) at 7:2:1 was dispensed at 0.4 ml into each well of a 24-well plate. After the solution was gelled by being stationed for 40 minutes in a 5% CO2 incubator (37° C.), HUVEC cell suspension was added at 0.4 ml to each well (using 1 to 1.2×10^5 cells, though the numbers of cells differ slightly according to the HUVEC lot), the HUVEC cell suspension being in human endothelial serum free medium (SFM, purchased from GIBCO BRL) containing added angiogenesis factors [20 ng/ml FGF2 (purchased from GIBCO BRL) and 10 ng/ml EGF (purchased from GIBCO BRL), or 25 ng/ml VEGF (purchased from Wako Pure Chemical Industries Co., Ltd.) and 10 ng/ml EGF, or 30 ng/ml HGF (purchased from R&D Co.) and 10 ng/ml EGF], and cultured overnight in a 5% CO2 incubator (37° C.). On the following day, the medium on the upper layer was aspirated off, and then 0.4 ml of an ice-cooled mixture of collagen: 5×RPMI 1640: reconstitution buffer (all purchased from Nitta Gelatin, Inc.) at 7:2:1 was superposed into each well prior to stationing for 4 hours in a 5% CO2 incubator (37° C.) for gelling. After adding 1.5 ml of an SFM solution containing each of the aforementioned angiogenesis factors and a diluted test substance onto the upper layer, culturing was performed in a 5% CO2 incubator (37° C.). Upon aspirating off the culture supernatant in each well on the 4th day after addition of the test substance, 0.4 ml of a 3.3 mg/ml MTT solution dissolved in PBS (purchased from Sigma Corp.) was added to each well and culturing was performed for approximately 2 hours in a 5% CO2 incubator (37° C.). The tubes formed in the collagen gel of each well were stained by MTT, the tube images were loaded into a computer (Macintosh), and the total length of the tubes was determined by image analysis software “MacScope” (purchased from Mitani Corp.). The ratio of the total length of the tubes formed in the well containing the test substance with respect to the total length of the tubes formed in the well containing no test substance was expressed as a percentage, and the concentration of each test substance required for 50% inhibition of tube formation (IC50) was determined from the ratio value.

VEGFR2 = molecular target: T1, VEGFR2 (Homo sapiens, UniProt P35968); assay: Inhibition against receptor tyrosine kinase activity (HTRF), VEGFR2; format: biochemical; conditions: His6-VEGFR2 cytoplasmic domain, biotin-poly(GT), HTRF; read-out: VEGFR2 kinase IC50
T1 construct: coding for the cytoplasmic domain, beginning with lysine 791 and including the termination codon; made in house; host or cells: Sf9 insect cells, baculovirus (pFastBacHis)
T1 sequence (P35968 786-1356 limits assumed): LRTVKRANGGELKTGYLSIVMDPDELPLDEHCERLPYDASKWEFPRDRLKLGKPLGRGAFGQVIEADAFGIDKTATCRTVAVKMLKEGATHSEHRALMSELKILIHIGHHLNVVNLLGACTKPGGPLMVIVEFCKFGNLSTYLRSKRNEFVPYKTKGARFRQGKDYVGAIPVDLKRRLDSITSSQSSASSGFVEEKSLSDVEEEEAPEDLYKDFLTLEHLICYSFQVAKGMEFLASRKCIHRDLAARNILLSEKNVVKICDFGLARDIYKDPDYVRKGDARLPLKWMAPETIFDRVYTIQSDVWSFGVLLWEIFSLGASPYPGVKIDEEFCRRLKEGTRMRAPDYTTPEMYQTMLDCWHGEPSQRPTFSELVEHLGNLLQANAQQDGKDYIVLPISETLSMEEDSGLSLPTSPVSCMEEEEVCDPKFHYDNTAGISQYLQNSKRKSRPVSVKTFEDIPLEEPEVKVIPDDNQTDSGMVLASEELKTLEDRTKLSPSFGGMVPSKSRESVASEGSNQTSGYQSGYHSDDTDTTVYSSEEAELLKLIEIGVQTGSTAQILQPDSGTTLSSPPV
Method: This assay is used to determine inhibition of a test substance on tyrosine kinase activity. […] Expression in an appropriate expression system can produce a polypeptide with tyrosine kinase activity. […] The recombinant construct was transfected into insect cells (Spondoptea frugiperda9 (Sf9)) to prepare a recombinant Baculovirus.
For expression of the VEGFR2 tyrosine kinase, Sf9 cells were infected with the VEGFR2 recombinant virus and collected after 48 hours. The collected cells were rinsed with ice-cooled phosphate buffered saline (PBS) and then resuspended using 20 ml of ice-cooled Lysis Buffer (50 mM Tris-HCl (pH 8.5), 5 mM 2-mercaptoethanol, 100 mM KCl, 1 mM phenylmethylsulfonyl fluoride, 1% (v/v) NP-40) per 1.5×10^8 cells. The suspension was centrifuged at 12,000 rpm for 30 minutes at 4° C. and the supernatant was obtained. The supernatant was added to a Ni-NTA agarose column (3 ml, purchased from Qiagen) equilibrated with Buffer A {20 mM Tris-HCl (pH 8.5), 5 mM 2-mercaptoethanol, 500 mM KCl, 20 mM imidazole, 10% (v/v) glycerol}. The column was washed with 30 ml of Buffer A, and then with 6 ml of Buffer B {20 mM Tris-HCl (pH 8.5), 5 mM 2-mercaptoethanol, 1M KCl, 10% (v/v) glycerol}, and finally with 6 ml of Buffer A. After washing, it was eluted with 6 ml of Buffer C {20 mM Tris-HCl (pH 8.5), 5 mM 2-mercaptoethanol, 100 mM KCl, 100 mM imidazole, 10% (v/v) glycerol}. The eluate was placed on a dialysis membrane (purchased from Spectrum Laboratories) and dialyzed with a dialysis buffer {20 mM Tris-HCl (pH 7.5), 10% (v/v) glycerol, 1 mM dithiothreitol, 0.1 mM Na3VO4, 0.1 mM EGTA}. […] Using the same method for the cytoplasmic domains of FGFR1, PDGFRβ and HGFR yielded respective recombinant proteins fused with 6 histidine residues at the N-terminal (His6-FGFR1, His6-PDGFRβ or His6-HGFR).
The tyrosine kinase reaction was conducted as follows. […] Next, 10 μl of 4 μM ATP (diluted with distilled water) was added prior to incubation at 30° C. for 10 minutes, and then 10 μl of 500 mM EDTA (pH 8.0) was added.
The tyrosine phosphorylation rate for the biotin-poly(GT) was expressed as the delta F % value as described in the HTRF Standard Experiment Methods text by CIS Diagnostics Co. The delta F % value in the presence of the test substance was determined as a ratio (%) with the delta F % value with addition of His6-VEGFR2 in the absence of the test substance defined as 100% and the delta F % value in the absence of both the test substance and His6-VEGFR2 defined as 0%.

KP-1/VEGF cells = assay: Antitumor activity on KP-1/VEGF cells in subcutaneous xenograft models; format: in vivo, mouse; conditions: oral twice a day, 2 weeks (5 days per week), Balb/c (nu/nu) mice
Method: VEGF high-expressing pancreatic cancer cells (KP-1/VEGF) suspended in PBS at a concentration of 1×10^7 cells/ml were transplanted under the right flank skin of 6-week-old female Balb/c (nu/nu) mice in a volume of 0.1 ml. When the tumor volume reached approximately 100 mm^3, the test substance was orally administered twice a day over a period of 2 weeks with a schedule of 5 days per week. The test substance was suspended in 0.5% methyl cellulose for an administered volume of 0.1 ml/10 g body weight. The tumor size was measured twice a week using a micrometer caliper. The tumor volume was determined by measuring the long and short diameters of the tumor with a micrometer caliper, and calculating ½×(long diameter×short diameter×short diameter). The experiment was conducted using 10 mice in the control (solvent-administered) group and 5 mice in each test substance-administered group.

`CNC(=O)n1ccc2cc(Oc3ccnc(NC(=O)N4CCC(O)CC4)c3)ccc21` [Example 39, N1-Methyl-5-(2-((4-hydroxypiperidino)carbonyl)amino-4-pyridyl)oxy-1H-1-indolecarboxamide] was tested, and the pIC50 [1] was 6.33 and the pIC50 (VEGFR2) was 8.35.
With `CNC(=O)n1ccc2cc(Oc3ccnc(NC(=O)N4CCC(C)(O)CC4)c3)ccc21` [Example 41, 5-(2-(((4-Hydroxy-4-methylpiperidin-1-yl)carbonyl)amino)pyridin-4-yloxy)-1H-1-indole-1-carboxylic acid methylamide] the pIC50 [1] was 6.60 and the pIC50 (VEGFR2) was 8.21.
With `CNC(=O)n1ccc2cc(Oc3ccnc(NC(=O)N4CCC(N5CCCC5)CC4)c3)ccc21` [Example 46, N1-Methyl-5-(2-(((4-(pyrrolidin-1-yl)piperidin-1-yl)carbonyl)amino)pyridin-4-yloxy)-1H-1-indolecarboxamide] the pIC50 [1] was 6.33, the “proportion of the tumor volume after administering test substance to that of control” value (from here on “proportion of the tumor volume”) (KP-1/VEGF cells; 6 mg/kg/day) was 77.7% and the “proportion of the tumor volume” value (KP-1/VEGF cells; 20 mg/kg/day) was 59.3%. For the same compound, the “proportion of the tumor volume” value (KP-1/VEGF cells; 60 mg/kg/day) was 60.0%, the “proportion of the tumor volume” value (KP-1/VEGF cells; 200 mg/kg/day) was 36.2% and the pIC50 (VEGFR2) was 7.49.
With `CNC(=O)n1ccc2cc(Oc3ccnc(NC(=O)N4CCC(N5CCCCC5)CC4)c3)ccc21` [Example 47, N1-Methyl-5-(2-(((4-(piperidin-1-yl)piperidin-1-yl)carbonyl)amino)pyridin-4-yloxy)-1H-1-indolecarboxamide] the pIC50 [1] was 6.92, the “proportion of the tumor volume” value (KP-1/VEGF cells; 6 mg/kg/day) was 80.5% and the “proportion of the tumor volume” value (KP-1/VEGF cells; 20 mg/kg/day) was 64.6%. For the same compound, the “proportion of the tumor volume” value (KP-1/VEGF cells; 60 mg/kg/day) was 45.3%, the “proportion of the tumor volume” value (KP-1/VEGF cells; 200 mg/kg/day) was 33.6% and the pIC50 (VEGFR2) was 7.40.
With `CNC(=O)n1ccc2cc(Oc3ccnc(NC(=O)N4CCOCC4)c3)ccc21` [Example 53, N4-(4-(1-(Methylamino)carbonyl-1H-5-indolyl)oxy-2-pyridyl)-4-morpholinecarboxamide] the pIC50 [1] was 6.36, the “proportion of the tumor volume” value (KP-1/VEGF cells; 6 mg/kg/day) was 73.1% and the “proportion of the tumor volume” value (KP-1/VEGF cells; 20 mg/kg/day) was 60.4%. For the same compound, the “proportion of the tumor volume” value (KP-1/VEGF cells; 60 mg/kg/day) was 48.4%, the “proportion of the tumor volume” value (KP-1/VEGF cells; 200 mg/kg/day) was 37.9% and the pIC50 (VEGFR2) was 8.42.

From patent publication US20060004029A1, “Nitrogen-containing aromatic derivatives” (priority 2003, published 2006)
